The text below walks through data of PMC6891286, “Towards the Development of an In vivo Chemical Probe for Cyclin G Associated Kinase (GAK)” (Molecules, 2019).

The target of series [1] is T1, GAK (Homo sapiens, UniProt O14976).
T1 sequence (O14976 1-1311): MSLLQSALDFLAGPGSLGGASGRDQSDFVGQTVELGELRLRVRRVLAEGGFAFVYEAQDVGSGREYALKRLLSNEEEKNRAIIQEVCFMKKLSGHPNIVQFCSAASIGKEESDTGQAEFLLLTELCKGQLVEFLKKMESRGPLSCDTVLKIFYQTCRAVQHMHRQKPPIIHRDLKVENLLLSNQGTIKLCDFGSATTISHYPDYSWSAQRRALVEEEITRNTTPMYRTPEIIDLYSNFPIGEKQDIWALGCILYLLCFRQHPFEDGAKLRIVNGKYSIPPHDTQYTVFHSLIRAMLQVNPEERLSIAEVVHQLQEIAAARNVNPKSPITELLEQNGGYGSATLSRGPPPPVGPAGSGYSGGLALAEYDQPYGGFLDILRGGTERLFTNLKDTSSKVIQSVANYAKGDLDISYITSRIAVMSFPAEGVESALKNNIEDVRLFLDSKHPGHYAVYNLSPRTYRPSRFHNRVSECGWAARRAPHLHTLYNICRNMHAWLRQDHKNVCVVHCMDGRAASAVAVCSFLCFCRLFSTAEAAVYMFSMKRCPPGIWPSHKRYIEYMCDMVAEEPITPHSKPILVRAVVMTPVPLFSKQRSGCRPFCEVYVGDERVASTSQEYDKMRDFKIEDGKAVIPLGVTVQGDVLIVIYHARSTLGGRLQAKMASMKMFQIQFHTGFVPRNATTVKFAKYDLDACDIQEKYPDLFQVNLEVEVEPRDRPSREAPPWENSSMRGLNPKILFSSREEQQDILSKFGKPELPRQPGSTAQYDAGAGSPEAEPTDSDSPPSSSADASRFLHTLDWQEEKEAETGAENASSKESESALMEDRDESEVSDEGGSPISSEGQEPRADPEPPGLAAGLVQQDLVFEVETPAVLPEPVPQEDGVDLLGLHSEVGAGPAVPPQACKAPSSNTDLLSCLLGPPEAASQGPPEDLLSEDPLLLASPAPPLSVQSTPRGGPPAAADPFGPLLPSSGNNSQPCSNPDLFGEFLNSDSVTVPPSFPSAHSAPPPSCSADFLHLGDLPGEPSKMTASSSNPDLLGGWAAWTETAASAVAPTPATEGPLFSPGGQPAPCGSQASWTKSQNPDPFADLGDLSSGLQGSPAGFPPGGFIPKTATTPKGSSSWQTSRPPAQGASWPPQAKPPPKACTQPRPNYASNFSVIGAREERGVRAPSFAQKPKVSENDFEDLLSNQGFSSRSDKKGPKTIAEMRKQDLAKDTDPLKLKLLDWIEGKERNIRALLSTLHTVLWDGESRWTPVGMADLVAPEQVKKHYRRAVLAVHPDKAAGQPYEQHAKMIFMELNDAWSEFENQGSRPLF
Put plainly: TR-FRET ligand-binding displacement assay.

For series [2], the target named is T1, GAK. Put plainly: live cell NanoBRET target engagement assay. The format is cell-based. Conditions: for IC50: nanoBRET, mean average, n = 2; for IC50 values in cells: live cell NanoBRET assay. (In general: In BRET a luciferase serves as donor, and the signal depends on an acceptor being close.)
Series [3] can be described thus: mouse liver microsome metabolic stability. The conditions noted are these: mouse liver microsomes; for T1/2 Ratio: normalization with respect to internal control (propranolol); for half-life: mouse, T1/2 (min), mouse liver microsomes with NADPH, mean average, n = 2. On the procedure:
SGC-GAK-1 (1) was incubated with MLMs in the presence or absence of added NADPH, and the compound was quantified at various time points over an hour.
The metabolic stability of the 4-anilinoquinolines (8–13) were evaluated in MLMs (Table 1). Half-lives for metabolic clearance were normalized to propranolol in each experimental run to control for variations in the MLM preparations.
(In general: Liver microsomes are vesicles of endoplasmic reticulum, rich in cytochrome P450 enzymes.)

The target of series [4] is AAK1 (Homo sapiens, UniProt Q2M2I8). Put plainly: NAK family TR-FRET binding displacement assay. The conditions noted are these: NAK family FRET screening. For orientation: TR-FRET usually uses a lanthanide donor and a delayed reading to cut background.
Series [5] has as its target BMP2K (Homo sapiens, UniProt Q9NSY1). Briefly: NAK family TR-FRET binding displacement assay.
In series [6] the target is STK16 (Homo sapiens, UniProt O75716). Put plainly: NAK family TR-FRET binding displacement assay. The conditions noted are these: NAK family FRET screening; read-out: Binding displacement assay STK16 Ki.
A short description of series [7]: Kinetic Solubility. The format is physicochemical. The conditions noted are these: pH 7.4, aqueous buffer, kinetic from dmso stock, PBS pH7.4 (100 µM).
[8] abbreviates: TR-FRET assay, read-out: Biochemical GAK Ki.
The mark [9] stands for this setting: NAK family FRET screening, read-out: Binding displacement assay GAK Ki.

Read-outs that look alike come from different tables or passages of the source.

Sequence of BMP2K (Q9NSY1 whole entry): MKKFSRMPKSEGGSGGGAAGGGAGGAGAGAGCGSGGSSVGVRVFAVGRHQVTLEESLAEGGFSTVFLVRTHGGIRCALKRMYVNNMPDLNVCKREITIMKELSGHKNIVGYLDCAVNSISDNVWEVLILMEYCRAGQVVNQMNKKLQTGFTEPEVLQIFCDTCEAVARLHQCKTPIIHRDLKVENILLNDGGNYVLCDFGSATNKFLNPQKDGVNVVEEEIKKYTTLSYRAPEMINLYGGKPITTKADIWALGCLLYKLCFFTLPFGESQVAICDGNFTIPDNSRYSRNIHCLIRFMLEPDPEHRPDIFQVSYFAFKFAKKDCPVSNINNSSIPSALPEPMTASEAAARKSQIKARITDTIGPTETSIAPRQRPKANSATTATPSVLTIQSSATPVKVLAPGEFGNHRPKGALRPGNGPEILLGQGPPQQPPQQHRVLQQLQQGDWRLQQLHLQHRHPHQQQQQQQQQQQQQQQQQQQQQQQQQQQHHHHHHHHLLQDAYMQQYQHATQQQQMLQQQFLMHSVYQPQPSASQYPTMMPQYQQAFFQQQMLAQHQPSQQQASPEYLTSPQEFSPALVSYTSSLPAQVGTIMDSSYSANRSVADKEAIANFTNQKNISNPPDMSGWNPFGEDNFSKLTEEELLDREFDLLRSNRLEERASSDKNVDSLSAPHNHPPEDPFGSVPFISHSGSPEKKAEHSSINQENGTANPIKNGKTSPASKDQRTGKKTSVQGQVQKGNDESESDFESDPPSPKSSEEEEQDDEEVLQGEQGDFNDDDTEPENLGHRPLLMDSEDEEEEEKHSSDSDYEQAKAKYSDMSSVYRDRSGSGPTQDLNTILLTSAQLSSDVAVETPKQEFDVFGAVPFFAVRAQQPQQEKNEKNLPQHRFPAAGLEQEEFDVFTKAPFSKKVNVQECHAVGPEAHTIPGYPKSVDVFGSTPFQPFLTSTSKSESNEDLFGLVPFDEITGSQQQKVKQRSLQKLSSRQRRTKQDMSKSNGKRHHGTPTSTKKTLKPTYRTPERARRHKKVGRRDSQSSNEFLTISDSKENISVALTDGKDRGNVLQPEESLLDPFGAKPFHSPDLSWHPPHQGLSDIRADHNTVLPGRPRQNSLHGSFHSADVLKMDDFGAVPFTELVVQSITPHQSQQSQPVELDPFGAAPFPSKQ
Sequence of STK16 (O75716 whole entry): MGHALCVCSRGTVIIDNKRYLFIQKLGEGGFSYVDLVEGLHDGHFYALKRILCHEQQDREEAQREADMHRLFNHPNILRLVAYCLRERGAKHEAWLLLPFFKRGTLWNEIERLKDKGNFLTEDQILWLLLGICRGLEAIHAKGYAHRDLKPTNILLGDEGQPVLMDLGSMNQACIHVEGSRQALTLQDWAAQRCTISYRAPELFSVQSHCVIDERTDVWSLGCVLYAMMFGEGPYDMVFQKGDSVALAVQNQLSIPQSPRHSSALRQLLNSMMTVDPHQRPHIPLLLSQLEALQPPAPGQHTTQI
Sequence of AAK1 (Q2M2I8 whole entry): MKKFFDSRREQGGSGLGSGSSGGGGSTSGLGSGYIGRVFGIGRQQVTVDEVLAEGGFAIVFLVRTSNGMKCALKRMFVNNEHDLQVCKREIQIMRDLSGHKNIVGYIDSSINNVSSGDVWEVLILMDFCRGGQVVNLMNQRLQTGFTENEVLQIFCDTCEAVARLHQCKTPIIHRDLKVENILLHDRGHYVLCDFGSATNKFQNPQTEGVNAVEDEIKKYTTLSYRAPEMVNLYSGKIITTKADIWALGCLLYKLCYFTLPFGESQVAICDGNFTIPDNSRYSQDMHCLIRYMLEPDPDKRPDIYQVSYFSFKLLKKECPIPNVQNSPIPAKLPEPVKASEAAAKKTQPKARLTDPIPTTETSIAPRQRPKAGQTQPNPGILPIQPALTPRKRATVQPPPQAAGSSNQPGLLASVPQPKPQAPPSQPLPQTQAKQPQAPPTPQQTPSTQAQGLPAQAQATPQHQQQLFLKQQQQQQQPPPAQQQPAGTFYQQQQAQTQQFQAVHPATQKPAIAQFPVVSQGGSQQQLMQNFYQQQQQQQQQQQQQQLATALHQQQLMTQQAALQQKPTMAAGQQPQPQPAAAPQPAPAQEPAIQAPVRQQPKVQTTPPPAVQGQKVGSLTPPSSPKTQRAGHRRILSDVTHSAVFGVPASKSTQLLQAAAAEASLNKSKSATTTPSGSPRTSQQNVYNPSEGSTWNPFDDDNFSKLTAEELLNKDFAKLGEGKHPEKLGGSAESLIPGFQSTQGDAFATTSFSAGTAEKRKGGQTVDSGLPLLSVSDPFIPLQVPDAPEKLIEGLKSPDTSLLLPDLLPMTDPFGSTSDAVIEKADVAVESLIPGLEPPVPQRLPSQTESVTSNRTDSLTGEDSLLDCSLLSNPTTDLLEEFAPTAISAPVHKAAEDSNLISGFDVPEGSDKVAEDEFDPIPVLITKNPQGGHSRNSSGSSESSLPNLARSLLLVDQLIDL

Take `O=c1[nH]c2ccc(Nc3ccnc4ccc(Br)cc34)cc2[nH]1` [Compound 39, 5-[(6-Bromoquinolin-4-yl)amino]-2,3-dihydro-1H-1,3-benzodiazol-2-one]: the Ki – broadly, a measure of affinity in units of concentration, obtained from inhibition or displacement – in series [1] (setting [8]) is 0.36 µM; in series [4], 1.9 µM; in series [5], 22 µM; in series [6], 21 µM. Moreover, in series [2], the 50% inhibitory concentration (IC50) (in general, the midpoint of a concentration-inhibition curve) was greater than 5 µM. Moreover, in series [3], the “T1/2 ratios fold higher than 9” value is recorded as no less than 2 fold. The “T1/2 Ratio” value in series [3] is listed as greater than 25. For the same compound, the half-life (as a rule, the time needed for the level to fall by half in the phase considered) in series [3] is greater than 200 min.

On to `Fc1cc2cn[nH]c2cc1Nc1ccnc2ccc(Br)cc12` [Compound 36, 6-Bromo-N-(5-fluoro-1H-indazol-6-yl)quinolin-4-amine], for which, in series [2], the IC50 is greater than 5 µM. In addition, in series [3], the “T1/2 Ratio” value is 2.2 and the half-life was determined as 14.8 min. In addition, the solubility kinetic in series [7] (read-out: Kinetic Solubility µM) amounted to 2 µM. Further, in series [7] (read-out: Kinetic Solubility µg/mL), the solubility kinetic was found to be 0.7 µg/mL.

For `Cn1nnc2c(Nc3ccnc4ccc(Br)cc34)cccc21` [Compound 30, 6-Bromo-N-(1-methyl-1H-benzo[d][1,2,3]triazol-4-yl)quinolin-4-amine], the Ki in series [1] (setting [9]) is 2.8 µM; in series [4], 8.7 µM; in series [5], 20 µM; in series [6], greater than 100 µM. The IC50 in series [2] is greater than 5 µM. In addition, in series [3], the “T1/2 Ratio” value was 0.09. This compound also returned a half-life in series [3] of 0.73 min.

Take `Brc1ccc2nccc(Nc3cccc4nc[nH]c34)c2c1` [Compound 27, N-(1H-Benzo[d]imidazol-7-yl)-6-bromoquinolin-4-amine]: the Ki in series [1] (setting [9]) is 0.066 µM; in series [4], 1.3 µM; in series [5], 2.3 µM; in series [6], 26 µM. In series [2], this compound gave an IC50 greater than 5 µM. In series [3], the “T1/2 Ratio” value is on record as 1.0. The compound also gave a half-life in series [3] of 8.1 min.

In the case of `FC1(F)Oc2cccc(Nc3ccnc4ccc(Br)cc34)c2O1` [Compound 16, 6-Bromo-N-(2,2-difluorobenzo[d][1,3]dioxol-4-yl)quinolin-4-amine], the Ki is 0.46 µM in series [1] (setting [8]), greater than 100 µM in series [4], greater than 100 µM in series [5] and greater than 100 µM in series [6]. Further, in series [2], the 50% inhibitory concentration (IC50) was greater than 5 µM. In addition, in series [3], the “T1/2 Ratio” value is listed as 0.24. In series [3], this compound had a half-life of 2 min.

For the compound `Brc1ccc2nccc(Nc3cccc4ccoc34)c2c1` [Compound 20, N-(Benzofuran-7-yl)-6-bromoquinolin-4-amine], the Ki in series [1] (setting [8]) was 0.0043 µM; in series [4], 4.6 µM; in series [5], 16 µM; in series [6], greater than 100 µM. In series [2], the “IC50 values in cells” value is recorded as “submicromolar”. Half-maximal inhibition in series [2] (IC50) was put at 0.57 µM. Further, the “T1/2 Ratio” value in series [3] turned out to be 0.08. This compound also displayed a half-life in series [3] of 0.9 min.

Turning to `Brc1ccc2nccc(Nc3cccc4occc34)c2c1` [Compound 19, N-(Benzofuran-4-yl)-6-bromoquinolin-4-amine], the Ki was 0.0019 µM in series [1] (setting [8]), 1.9 µM in series [4], 11 µM in series [5] and greater than 100 µM in series [6]. Besides, the “IC50 values in cells” value in series [2] was “submicromolar”. For the same compound, in series [2], the IC50 was 0.18 µM. The “T1/2 Ratio” value in series [3] is given as 0.16. The same compound registered a half-life in series [3] of 1.7 min.

Regarding `Brc1ccc2nccc(Nc3cccc4c3OCC4)c2c1` [Compound 18, 6-Bromo-N-(2,3-dihydrobenzofuran-7-yl)quinolin-4-amine], the Ki in series [1] (setting [8]) was 0.029 µM; in series [4], 3.5 µM; in series [5], 11 µM; in series [6] it was greater than 100 µM. The compound also yielded an IC50 in series [2] of 2.5 µM. Moreover, the “T1/2 Ratio” value in series [3] is reported as 0.10. This compound yielded a half-life in series [3] of 0.82 min.

`Fc1c(F)c(F)c(Nc2ccnc3ccc(C(F)(F)F)cc23)c(F)c1F` [Compound 12]: the Ki in series [1] (setting [8]) was 0.88 µM; in series [4], greater than 100 µM; in series [5], greater than 100 µM; in series [6], 19 µM. The “T1/2 Ratio” value in series [3] is reported as 7.0. In series [3], this compound gave a half-life of 45.6 min.

Consider `O=c1[nH]c2ccc(Nc3ccnc4ccc(Br)cc34)cc2o1` [Compound 40, 6-[(6-Bromoquinolin-4-yl)amino]-2,3-dihydro-1,3-benzoxazol-2-one], for which the Ki in series [1] (setting [8]) was 0.68 µM; in series [4], 2.4 µM; in series [5], 4.9 µM; in series [6], 8.8 µM. Also, in series [2], the IC50 was greater than 5 µM. The “T1/2 ratios fold higher than 9” value in series [3] was no less than 2 fold. Also, in series [3], the “T1/2 Ratio” value was determined as 6.9. The half-life in series [3] amounted to 55.9 min.

On to `O=c1[nH]c2cc(Nc3ccnc4ccc(Br)cc34)ccc2o1` [Compound 41, 5-[(6-Bromoquinolin-4-yl)amino]-2,3-dihydro-1,3-benzoxazol-2-one], for which the Ki in series [1] (setting [8]) was 0.11 µM; in series [4], 37 µM; in series [5], 79 µM; in series [6], greater than 100 µM. The IC50 in series [2] was greater than 5 µM. Moreover, the “T1/2 ratios fold higher than 9” value in series [3] is on record as no less than 2 fold. The “T1/2 Ratio” value in series [3] amounted to 3.4. The same compound yielded a half-life in series [3] of 27.8 min.

With `Cn1c(=O)[nH]c2cc(Nc3ccnc4ccc(Br)cc34)ccc21` [Compound 42, 5-[(6-Bromoquinolin-4-yl)amino]-1-methyl-2,3-dihydro-1H-1,3-benzodiazol-2-one], the Ki in series [1] (setting [8]) was 1.6 µM; in series [4], 4.1 µM; in series [5] it was 6.6 µM; in series [6], 9.3 µM. Further, the IC50 in series [2] was greater than 5 µM. In series [3], the “T1/2 ratios fold higher than 9” value is recorded as no less than 2 fold. Moreover, the “T1/2 Ratio” value in series [3] is given as 4.2. In addition, the half-life in series [3] stood at 33.6 min.

For the compound `O=S1(=O)Cc2ccc(Nc3ccnc4ccc(Br)cc34)cc2C1` [Compound 43, 5-((6-Bromoquinolin-4-yl)amino)-1,3-dihydrobenzo[c]thiophene 2,2-dioxide], the Ki in series [1] (setting [8]) was 1.7 µM; in series [4] it was 3.3 µM; in series [5], 6.4 µM; in series [6], 8 µM. The IC50 in series [2] is greater than 5 µM. The “T1/2 Ratio” value in series [3] is on record as 1.9. This compound also had a half-life in series [3] of 15.6 min.

For the compound `Brc1ccc2nccc(Nc3cccc4sccc34)c2c1` [Compound 26, N-(Benzo[b]thiophen-4-yl)-6-bromoquinolin-4-amine], the Ki was 0.023 µM in series [1] (setting [8]), greater than 100 µM in series [4], greater than 100 µM in series [5] and greater than 100 µM in series [6]. Also, 3.3 µM corresponded to half-maximal inhibition in series [2] (IC50). The “T1/2 Ratio” value in series [3] is 0.50. The compound also displayed a half-life in series [3] of 4.1 min.

Take `Cn1ncc2c(Nc3ccnc4ccc(Br)cc34)cccc21` [Compound 31, 6-Bromo-N-(1-methyl-1H-indazol-4-yl)quinolin-4-amine]: the Ki is 3.6 µM in series [1] (setting [9]), 13 µM in series [4], 16 µM in series [5] and 28 µM in series [6]. Further, the IC50 in series [2] is greater than 5 µM. Besides, in series [3], the “T1/2 Ratio” value is on record as 0.10. This compound also registered a half-life in series [3] of 0.8 min.

As to `Brc1ccc2nccc(Nc3cccc4c3CCO4)c2c1` [Compound 17, 6-Bromo-N-(2,3-dihydrobenzofuran-4-yl)quinolin-4-amine], the Ki in series [1] (setting [8]) is 0.0052 µM; in series [4], greater than 100 µM; in series [5], greater than 100 µM; in series [6], greater than 100 µM. Further, the IC50 in series [2] was greater than 5 µM. In series [3], the “T1/2 Ratio” value was 0.16. This compound had a half-life in series [3] of 1.7 min.
